# According to ChEMBL document CHEMBL2086307, “Design, synthesis and identification of a new class of triarylmethyl amine compounds as inhibitors of apolipoprotein E production” (2012):
# Calls of active or inactive are those of the source. No cut-off for these calls is given here.
# System: CCF-STTG1
# Test: Inhibition of apolipoprotein E production in human CCF-STTG1 cells at 10 uM after 24 hrs by ELISA relative to vehicle-treated control
# Format: functional
# Conditions: not given
row,Structure (SMILES),inhibition
1,CCN(CC)C(c1ccccc1)(c1ccccc1)c1ccc2ccccc2c1,Active
2,c1ccc(C(c2ccccc2)(c2ccccc2)N2CCNCC2)cc1,Active
3,CN(C)C(c1ccccc1)(c1ccccc1)c1ccccc1,Active
4,c1ccc(C(NC2CCCCC2)(c2ccccc2)c2ccccc2)cc1,Active
5,O=C(c1ccccc1)c1ccccc1,Active
6,c1ccc(C(c2ccccc2)(c2ccccc2)N2CCCC2)cc1,Active
7,c1ccc(NC(c2ccccc2)(c2ccccc2)c2ccccc2)cc1,Active
8,COc1ccc(C(NCc2ccccc2)(c2ccccc2)c2ccccc2)cc1,Active
9,O=C(c1ccccc1)C(O)c1ccccc1 (stereo unspecified),Active
10,COc1ccc(C(NC2CCCCC2)(c2ccccc2)c2ccccc2)cc1,Active
11,c1ccc(C(c2ccccc2)(c2ccccc2)N2CCCCC2)cc1,Active
12,CCCCN(CCCC)C(c1ccccc1)(c1ccccc1)c1ccccc1,Active
13,COc1ccc(C(c2ccccc2)(c2ccccc2)N2CCOCC2)cc1,Active
14,CCN(CC)C(c1ccccc1)(c1ccccc1)c1ccccc1,Active
15,O=C(c1ccccc1)c1ccc(O)cc1,Active
16,CN(C)C(c1ccccc1)(c1ccccc1)c1ccc2ccccc2c1,Active
17,c1ccc(C(NC2CCCCC2)(c2ccccc2)c2ccc3ccccc3c2)cc1,Active
18,O=C(c1ccccc1)c1ccc(OCc2ccccc2)cc1,Active

row,Structure (SMILES),inhibition
1,COc1ccc(C(c2ccccc2)(c2ccccc2)N2CCCCC2)cc1,Active
2,c1ccc(C(c2ccccc2)(c2ccccc2)N2CCOCC2)cc1,Active
3,c1ccc(CN(Cc2ccccc2)C(c2ccccc2)(c2ccccc2)c2ccccc2)cc1,Active
4,COc1ccc(C(Nc2ccccc2)(c2ccccc2)c2ccccc2)cc1,Active
5,CC(NC(c1ccccc1)(c1ccccc1)c1ccccc1)c1ccccc1 (racemic),Active
6,COc1ccc(C(NCC(C)C)(c2ccccc2)c2ccccc2)cc1,Active
7,CCCCN(CCCC)C(c1ccccc1)(c1ccccc1)c1ccc(OC)cc1,Active
8,CCC(C)NC(c1ccccc1)(c1ccccc1)c1ccc(OC)cc1 (stereo unspecified),Active
9,COc1ccc(C(c2ccccc2)(c2ccccc2)N(C)C)cc1,Active
10,COc1ccc(C(c2ccccc2)(c2ccccc2)N2CCNCC2)cc1,Active
11,CCN(CC)C(c1ccccc1)(c1ccccc1)c1ccc(OC)cc1,Active
12,c1ccc(C(c2ccccc2)(c2ccc3ccccc3c2)N2CCCCC2)cc1,Active
13,CCCCN(CCCC)C(c1ccccc1)(c1ccccc1)c1ccc2ccccc2c1,Active
14,CCC(C)NC(c1ccccc1)(c1ccccc1)c1ccccc1 (stereo unspecified),Active
15,c1ccc(CNC(c2ccccc2)(c2ccccc2)c2ccccc2)cc1,Active
16,CC(NC(c1ccccc1)(c1ccccc1)c1ccc2ccccc2c1)c1ccccc1 (racemic),Active
17,COc1ccc(C(c2ccccc2)(c2ccccc2)N2CCCC2)cc1,Active
18,CC(C)CNC(c1ccccc1)(c1ccccc1)c1ccccc1,Active

# Same assay, conditions: CCF-STTG1, 24 h
row,Structure (SMILES),inhibition at 10 µM
1,c1ccc(C(c2ccccc2)(c2ccc3ccccc3c2)N2CCCC2)cc1,46%
2,c1ccc(C(c2ccccc2)(c2ccc3ccccc3c2)N2CCOCC2)cc1,49%
3,c1ccc(C(NCC2CCCCC2)(c2ccccc2)c2ccccc2)cc1,51%
4,CC(C)CNC(c1ccccc1)(c1ccccc1)c1ccc2ccccc2c1,50%
5,CCC(C)NC(c1ccccc1)(c1ccccc1)c1ccc2ccccc2c1 (stereo unspecified),66%
